These results are taken from patent US11932626B2, “2-pyrimidone analogs as potent antiviral agents against Alphaviruses” (priority 2020, dated 2024).

Some results are limits rather than exact numbers.

As a reminder, the EC90 is the concentration needed for an effect of 90%. By EC50 is commonly meant the midpoint of the concentration-response curve.

For series [1], the system named is VEEV. In words: microbe, parasite or virus in culture. The format is cell-based. The note with it: Venezuelan equine encephalitis virus, NHDF; for EC90: read-out: VEEV EC90; for log reduction at 10 µM: read-out: VEEV VTR.
The subject of series [2] is CHIKV linked NanoLuc luciferase reporter. In words: microbe, parasite or virus in culture. It is filed as cell-based. The note with it: Chikungunya virus, read-out: CHIKV EC50.
In series [3] the test system is CHIKV. In words: CHIKV virus titer reduction (VTR) assay in NHDF cells. The note with it: Chikungunya virus; for log reduction at 10 µM: CHIKV titer reduction at 10 μM, normal human dermal fibroblasts (NHDF) cells; for EC90: effective concentration of 90% inhibition of virus in a VTR assay, NHDF cells. The format is cell-based.
For series [4], the system named is VEEV (TC-83). In words: microbe, parasite or virus in culture. The note with it: Venezuelan equine encephalitis virus, read-out: VEEV EC50. The format is cell-based.
Series [5] in a line: in vitro. The note with it: human.

Turning to `COC(=O)c1c(SCC(=O)NC23CC4CC(CC(C4)C2)C3)nc(=O)[nH]c1C` [compound 1], the EC90 in series [1] stood at 1.9 µM; in series [3], 0.089 µM. For the same compound, the EC50 in series [2] came to 0.66 µM; in series [4] it was 4.33 µM. In series [3], this compound showed a log reduction at 10 µM of 6.9. Besides, the CC50 in series [5] is over 127 µM.

Turning to `Cc1[nH]c(=O)nc(SCC(=O)NC23CC4CC(CC(C4)C2)C3)c1C#N` [compound 2], the log reduction at 10 µM in series [1] was 1.1; in series [3], 1.25. For the same compound, the EC50 in series [2] is 22.9 µM; in series [4] it was over 40 µM. The compound further registered a CC50 in series [5] of over 40 µM.

For the compound `O=C(CSc1cc[nH]c(=O)n1)NC12CC3CC(CC(C3)C1)C2` [compound 3, N-(Adamantan-1-Yl)-2-((2-Oxo-1,2-Dihydropyrimidin-4-Yl)Thio)Acetamide], the EC90 in series [1] and in series [3] was 0.31 µM each time. The log reduction at 10 µM is 4.49 in series [1] and 7.44 in series [3]. For the same compound, the EC50 was determined as 0.5 µM in series [2] and 2.5 µM in series [4]. This compound also came in with a CC50 in series [5] of over 40 µM.

As to `O=C(CSc1cc[nH]c(=O)n1)NC1C2CC3CC(C2)CC1C3` (stereo not drawn) [compound 4, N-(Adamantan-2-Yl)-2-((2-Oxo-1,2-Dihydropyrimidin-4-Yl)Thio)Acetamide], the log reduction at 10 µM stood at 5.88 in series [1] and 7.3 in series [3]. Also, the values for the EC50 in series [2] and in series [4] were 0.437 µM and 1.68 µM, respectively. It took 0.61 µM to reach the 90% level in series [3] (EC90). Moreover, the CC50 in series [5] is over 40 µM.

For `CC(C)Cc1cc(C(=O)NCCC23CC4CC(CC(C4)C2)C3)nc(=O)[nH]1` [compound 5, N-(2-(Adamantan-1-Yl)Ethyl)-6-Isobutyl-2-Oxo-1,2-Dihydropyrimidine-4-Carboxamide], the EC50 in series [2] is 35.2 µM; in series [4] it was over 40 µM. The compound also gave a CC50 in series [5] of over 40 µM.

Consider `O=C(CNc1cc[nH]c(=O)n1)NC12CC3CC(CC(C3)C1)C2` [compound 6, N-(adamantan-1-yl)-2-((2-oxo-1,2-dihydropyrimidin-4-yl)amino)acetamide], for which the values for the EC50 in series [2] and in series [4] were 11.8 µM and over 40 µM, respectively. The compound also yielded a CC50 in series [5] of over 40 µM.

On to `O=C(COc1cc[nH]c(=O)n1)NC1C2CC3CC(C2)CC1C3` (stereo not drawn) [compound 8, N-(Adamantan-2-Yl)-2-((2-Oxo-1,2-Dihydropyrimidin-4-Yl)Oxy)Acetamide], for which the EC90 in series [1] was found to be 0.08 µM; in series [3], 0.21 µM. Further, the log reduction at 10 µM is 1.94 in series [1] and 1.05 in series [3]. For the same compound, the EC50 in series [2] and in series [4] was over 40 µM each time. In addition, the CC50 in series [5] was over 40 µM.

With `Cc1cc(OCC(=O)NC23CC4CC(CC(C4)C2)C3)nc(=O)[nH]1` [compound 9, N-(Adamantan-1-Yl)-2-((6-Methyl-2-Oxo-1,2-Dihydropyrimidin-4-Yl)Oxy)Acetamide], the EC90 in series [1] came out at 1.1 µM; in series [3], 3.5 µM. In addition, the log reduction at 10 µM in series [1] was determined as 1.37; in series [3], 1.81. The EC50 is 1.2 µM in series [2] and 20 µM in series [4]. The same compound showed a CC50 in series [5] of over 40 µM.

With `CC(C)Cc1cc(OCC(=O)NC23CC4CC(CC(C4)C2)C3)nc(=O)[nH]1` [compound 10, N-(Adamantan-1-Yl)-2-((6-Isobutyl-2-Oxo-1,2-Dihydropyrimidin-4-Yl)Oxy)Acetamide], the EC90 was 1.2 µM in series [1] and 0.31 µM in series [3]. The figures for the log reduction at 10 µM in series [1] and in series [3] were 2.74 and 8.16, respectively. In addition, the results for the EC50 in series [2] and in series [4] were 1.15 µM and 19.7 µM, respectively. The CC50 in series [5] is over 40 µM.

For the compound `O=C(COc1cc(C2CC2)[nH]c(=O)n1)NC12CC3CC(CC(C3)C1)C2` [compound 11, N-(Adamantan-1-Yl)-2-((6-Cyclopropyl-2-Oxo-1,2-Dihydropyrimidin-4-Yl)Oxy)Acetamide], the EC90 in series [1] stood at 1.1 µM; in series [3] it was 0.56 µM. For the same compound, the log reduction at 10 µM turned out to be 2.97 in series [1] and 1.05 in series [3]. The EC50 in series [2] is 0.24 µM; in series [4], 20.6 µM. Moreover, in series [5], the CC50 is over 40 µM.

Turning to `O=C(COc1cc(C2CCC2)[nH]c(=O)n1)NC12CC3CC(CC(C3)C1)C2` [compound 12, N-(Adamantan-1-Yl)-2-((6-Cyclobutyl-2-Oxo-1,2-Dihydropyrimidin-4-Yl)Oxy)Acetamide], the 90% effect concentration (EC90) in series [1] and in series [3] was 0.1 µM throughout. The log reduction at 10 µM in series [1] is 3.1; in series [3] it was 3.31. Besides, the half-maximal effective concentration (EC50) in series [2] turned out to be 0.11 µM; in series [4], 1.88 µM. Besides, the CC50 in series [5] was over 40 µM.

Regarding `O=C(COc1cc(C2CCCC2)[nH]c(=O)n1)NC12CC3CC(CC(C3)C1)C2` [compound 13, N-(Adamantan-1-Yl)-2-((6-Cyclopentyl-2-Oxo-1,2-Dihydropyrimidin-4-Yl)Oxy)Acetamide], the 90% effect concentration (EC90) stood at 4.5 µM in series [1] and 0.04 µM in series [3]. Further, the log reduction at 10 µM is 1.94 in series [1] and 5.93 in series [3]. Further, the results for the EC50 in series [2] and in series [4] were 1.24 µM and 17.4 µM, respectively. The same compound showed a CC50 in series [5] of over 40 µM.

Turning to `CC(C)(C)c1ccc(NC(=O)c2cc[nH]c(=O)n2)cc1` [compound 30, N-(4-(Tert.-Butyl)Phenyl)-2-Oxo-1,2-Dihydropyrimidine-4-Carboxamide], the EC50 in series [2] was 26.4 µM; in series [4], over 40 µM. This compound gave a CC50 in series [5] of over 40 µM.

For `CC(C)Cc1cc(C(=O)Nc2ccc(C(C)(C)C)cc2)nc(=O)[nH]1` [compound 31, N-(4-(Tert.-Butyl)Phenyl)-6-Isobutyl-2-Oxo-1,2-Dihydropyrimidine-4-Carboxamide], the values for the EC50 in series [2] and in series [4] were 13.1 µM and over 40 µM, respectively. Besides, in series [5], the CC50 was over 40 µM.

As for `O=C(COc1cc(OCCO)[nH]c(=O)n1)NC12CC3CC(CC(C3)C1)C2` [compound 32, N-(adamantan-1-yl)-2-((6-(2-hydroxyethoxy)-2-oxo-1,2-dihydropyrimidin-4-yl)oxy)acetamide], the EC50 in series [2] is 4.69 µM; in series [4], over 40 µM. In series [3], this compound had a log reduction at 10 µM of 3.45. In series [3], this compound yielded an EC90 of 0.61 µM. The same compound showed a CC50 in series [5] of over 40 µM.

For the compound `O=C(COc1nc(=O)[nH]c(N2CCOCC2)c1F)NC12CC3CC(CC(C3)C1)C2` [compound 33, N-(Adamantan-1-Yl)-2-((5-Fluoro-6-Morpholino-2-Oxo-1,2-Dihydropyrimidin-4-Yl)Oxy)Acetamide], the results for the EC50 in series [2] and in series [4] were 1.8 µM and 23.9 µM, respectively. This compound gave a log reduction at 10 µM in series [3] of 6.08. For the same compound, in series [3], the EC90 is 0.15 µM. For the same compound, the CC50 in series [5] is over 40 µM.

`CCCCOC(=O)c1cc(SCC(=O)NC23CC4CC(CC(C4)C2)C3)nc(=O)[nH]1` [compound 39, Butyl 6-((2-((-Adamantan-1-Yl)Amino)-2-Oxoethyl)Thio)-2-Oxo-2,3-Dihydropyrimidine-4-Carboxylate]: the EC50 in series [2] and in series [4] was over 40 µM in each case. The compound also had a CC50 in series [5] of over 40 µM.

As to `O=C(CSc1cc(C(=O)O)[nH]c(=O)n1)NC12CC3CC(CC(C3)C1)C2` [compound 40, 6-((2-((adamantan-1-yl)amino)-2-oxoethyl)thio)-2-oxo-2,3-dihydropyrimidine-4-carboxylic acid], the EC50 in series [2] and in series [4] was over 40 µM throughout. Further, in series [5], the CC50 is over 40 µM.

Consider `O=C(CSc1cc[nH]c(=O)n1)NCC12CC3CC(CC(C3)C1)C2` [compound 41, N-((Adamantan-1-Yl)Methyl)-2-((2-Oxo-1,2-Dihydropyrimidin-4-Yl)Thio)Acetamide], for which the EC50 in series [2] and in series [4] was over 40 µM throughout. The compound also yielded a CC50 in series [5] of over 40 µM.

Turning to `O=C(NC12CC3CC(CC(C3)C1)C2)c1cc[nH]c(=O)n1` [compound 42, N-((Adamantan-1-Yl)-2-Oxo-1,2-Dihydropyrimidine-4-Carboxamide], the half-maximal effective concentration (EC50) in series [2] and in series [4] was over 40 µM each time. In series [5], this compound returned a CC50 of over 40 µM.

For `CC(C)Cc1cc(C(=O)NC23CC4CC(CC(C4)C2)C3)nc(=O)[nH]1` [compound 43, N-(Adamantan-1-Yl)-6-Isobutyl-2-Oxo-1,2-Dihydropyrimidine-4-Carboxamide], the concentration for a half-maximal effect (EC50) in series [2] and in series [4] was over 40 µM throughout. This compound also yielded a CC50 in series [5] of over 40 µM.

On to `O=C(COc1cc(OC2COC2)[nH]c(=O)n1)NC12CC3CC(CC(C3)C1)C2` [compound 53, N-(Adamantan-1-Yl)-2-((6-(Oxetan-3-Yloxy)-2-Oxo-1,2-Dihydropyrimidin-4-Yl)Oxy)Acetamide], for which the results for the EC50 in series [2] and in series [4] were 27.9 µM and over 40 µM, respectively. In series [5], the CC50 is over 40 µM.

With `CC(C)Oc1[nH]c(=O)nc(OCC(=O)NC23CC4CC(CC(C4)C2)C3)c1F` [compound 54, N-(Adamantan-1-Yl)-2-((5-Fluoro-6-Isopropoxy-2-Oxo-1,2-Dihydropyrimidin-4-Yl)Oxy)Acetamide], the EC50 in series [2] was 21.5 µM; in series [4], over 40 µM. The CC50 in series [5] is over 40 µM.

For the compound `O=C(COc1cc(OCC(F)(F)F)[nH]c(=O)n1)NC12CC3CC(CC(C3)C1)C2` [compound 57, N-(adamantan-1-yl)-2-((2-oxo-6-(2,2,2-trifluoroethoxy)-1,2-dihydropyrimidin-4-yl)oxy)acetamide], the EC50 in series [2] stood at 2.97 µM. In series [3], this compound came in with a log reduction at 10 µM of 7.79 and an EC90 of 0.3 µM. The EC50 in series [4] was over 40 µM. Also, the CC50 in series [5] is over 40 µM.
